In experiment [1] the test system is MCF7 cells. The experiment is described as follows: Mitochondrial superoxide (MitoSOX, flow cytometry). The following applies: both concentrations of mDIVI-1, compared to vehicle. In kind it is cell-based, Human. The text has this: Inhibition of the mitochondrial fission impacts on other mitochondrial processes, such as mitochondrial metabolism and general and mitochondrial oxidative stress. To confirm, MCF7 cells were stained with MitoSOX and CM-H2DCFDA, and mitochondrial superoxide and total ROS were quantified by flow cytometry. […] Whereas the increase in general ROS goes in line with the increase in mitochondrial content, the boost in the levels of mitochondrial superoxide in mDIV1-treated cells is actually bigger than the observed increased mitochondrial content.
LEVELS OF REACTIVE OXYGEN SPECIES AND MITOCHONDRIAL SUPEROXIDE: For both assays, 2×10^5 MCF7 cells were seeded in 35 mm plates. […] Reactive oxygen species (ROS) production was measured using CM-H2DCFDA (C6827, Invitrogen). Briefly, cells were incubated for 20 minutes at 37° C. with 1 μM CM-H2DCFDA diluted in PBS and then placed in complete media for 20 minutes at 37° C. in the dark, to render the dye fluorescent, according to the manufacturer. Mitochondrial superoxide was measured using MitoSOX Red Mitochondrial Superoxide Indicator (M36008, ThermoFisher Scientific). […] ROS signal and MitoSOX signal was quantified as mean fluorescent intensity of the viable cell population in a Fortessa flow cytometer (BD Bioscience). Results were analysed using FlowJo software.

For another experiment, the system named is E-cadherin. Description: Western blotting (immunoblot). Format: cell-based, Human. The following applies: MCF7 cells after mDIVI-1 treatment. As for the experimental part:
Breast cancer stem cells can exist in distinct states, an mesenchymal-like state and an epithelial-like state, being the first one characterized for its expression of CD24^−/CD44^+, with an mesenchymal-like gene-expression profile and primarily quiescent.
At the end of the treatment, cells in suspension were spun down and lysed and attached cells were directly lysed in RIPA lysis buffer (R0278, Sigma) containing proteinase inhibitors (05 892 970 001, Roche) and kept at 4° C. for 20 minutes with rotation. Lysates were cleared by centrifugation for 10 minutes at 10,000×g and supernatants were collected. Equal amounts of protein lysate, as determined by using the BCA protein assay kit (23225, Pierce) were diluted in SDS sample buffer and dry-boiled for 5 minutes before being separated by SDS-PAGE using 4-20% gels (456-1094, Biorad). Samples were then blotted onto nitrocellulose membranes (170-4159, Biorad), blocked in 5% milk in TBS-Tween 20 (P9416, Sigma) for 1 hour and probed with antibodies against E-cadherin (ab8995, Abcam) or β-actin (a2228, Sigma). Bound antibodies were detected using a horseradish peroxidase-conjugated secondary antibody (ab6789 and ab6721, Abcam) and signal was obtained using Supersignal West Pico chemiluminiscent substrate (34087, ThermoScientific). Pictures were taken in a ChemiDoc XRS with Image Lab Software (BioRad).

For the next experiment, the system named is A375 melanoma cells. Description: Tumorsphere formation assay, A375. In kind it is cell-based. As to the method:
One of the gold standard techniques for the study and identification of CSCs is the sphere formation assay, an in vitro culture system that enriches for CSCs. Under these anchorage-independent culture conditions, CSCs preferentially form the so-called tumorspheres, whereas more differentiated cells die rapidly.
TUMORSPHERE FORMATION ASSAY: A single cell suspension was prepared using enzymatic (1× Trypsin-EDTA, T3924, Sigma Aldrich), and manual disaggregation (25 gauge needle). […] After 5 days of culture in a humidified incubator at 37° C., tumorspheres bigger than 50 μm were counted using an eye piece graticule.

For experiment [2], the system named is MCF7 cells. The experiment is described as follows: Mitochondrial mass quantification by flow cytometry (MitoTracker Deep Red). In kind it is cell-based, Human. The following applies: 50 μM, 5 days, relative to vehicle. The text has this: In order to assess whether the inhibition of DRP1 was actually being translated into a reduction in mitochondrial fission, the inventors stained the mitochondria of MCF7 cells with Mitotracker Deep Red, which is a marker of mitochondrial mass. […] The original images are black background with shades of red over the cells, whereas the images in FIG. 3 have been color-inverted and generated in grey scale. Mitochondrial mass was also quantified by flow cytometry. FIGS. 4A-4C show results of mitochondrial mass quantification. In FIG. 4A, Mitotracker Deep Red mean intensity relative to vehicle intensity is shown for 2-day and 5-day treatments.
MITOCHONDRIAL MASS QUANTIFICATION: To measure mitochondrial mass, cells were stained with MitoTracker Deep Red (M22426, Invitrogen). Briefly, 2×10^5 […] cells per well were seeded in 6-well plates. […] Cells were then incubated for 15 min at 37° C. with the 10 nM Mitotracker Deep Red probe diluted in PBS (D8662, Sigma). All subsequent steps were performed in the dark. Cells were washed in PBS, harvested, and resuspended in PBS. Mitotracker signal was quantified as mean fluorescent intensity of the viable cell population in a Fortessa flow cytometer (BD Bioscience). Results were analyzed using FlowJo software.

Experiment [3] concerns MCF7 cells. The experiment is described as follows: Bradford assay (protein content as indicator of cell viability). In kind it is cell-based, Human. The following applies: 2 days. As for the experimental part: The inventors sought to evaluate whether mDIVI-1-induced inhibition of DRP1 has repercussion on the viability of MCF7 cells. […] Similar results were obtained using the Bradford assay, which measures protein content, as an indicator of cell viability.
EXTRACELLULAR FLUX […] AND BRADFORD ASSAY: Extracellular acidification rate (ECAR) and oxygen consumption rate (OCR) were measured in a XF96 Extracellular Flux Analyzer (Seahorse Biosciences). Briefly, 1×10^4 MCF7 cells per well were seeded in XF96 plates and incubated with complete medium. When cells were attached, mDIVI-1 and vehicle treatments were added. Six replicates were run for each condition. After 48 hours, un-buffered DMEM XF medium supplemented with 2 mM glutamine (pH 7.4) was added to the cells, and placed in a 37° C. CO2-free incubator for 1 hour. Ten mM glucose, 1 μM oligomycin and 100 mM 2-deoxyglucose (2-DG) were injected into the media at different time points and ECAR was measured. Likewise, ECAR and OCR were quantified using un-buffered DMEM XF medium supplemented with 2 mM glutamine, 2 mM sodium pyruvate and 10 mM glucose. One μM oligomycin, 0.9 μM FCCP and 1 μM rotenone and antimycin A were injected into the media at different time points and OCR and ECAR were measured. […] All parameters were calculated according to manufacturer.

As for `COc1cc(-n2c(S)nc3ccccc3c2=O)c(Cl)cc1Cl` [mDIVI-1, 3-(2,4-Dichloro-5-methoxyphenyl)-2-sulfanyl-4(3H)-quinazolinone], the “mitochondrial superoxide production (MitoSOX)” value with MCF7 cells [1] is given as “significantly increased”. Further, the “expression of E-cadherin” value in the experiment on E-cadherin was “reduction”. Also, the “decrease of tumorsphere forming capacity” value in the experiment with A375 melanoma cells (A375, 10 μM) is on record as “over 35%”; in the experiment on A375 melanoma cells (A375, 50 μM), “over 90%”. For the same compound, in the experiment with MCF7 cells [2], the “Mitotracker Deep Red mean fluorescence intensity (mitochondrial mass)” value is on record as “significantly higher”. The MCF7 protein content entry in the experiment with MCF7 cells [3] (20 μM) and in the experiment with MCF7 cells [3] (50 μM) was “significantly reduced” throughout.

Values taken from US11559527B2 (priority 2017, dated 2023).
